Values of other authors, collected in patent publication US11685721B2, “Human plasma kallikrein inhibitors” (BioCryst Pharmaceuticals, Inc., priority 2014, dated 2023).

Test system: patients with hereditary angioedema (HAE)

Molecule	treating HAE (hereditary angioedema)	edema (patients with hereditary angioedema (HAE))
NC(N)=NCCC[C@@H](N)C(=O)N[C@@H](CCCN=C(N)N)C(=O)N1CCC[C@H]1C(=O)N1C[C@H](O)C[C@H]1C(=O)NCC(=O)N[C@@H](Cc1cccs1)C(=O)N[C@@H](CO)C(=O)N1Cc2ccccc2C[C@@H]1C(=O)N1[C@H](C(=O)N[C@@H](CCCN=C(N)N)C(=O)O)C[C@@H]2CCCC[C@@H]21 [Icatibant]	effective	–
ecallantide [DX-88]	–	alleviates edema
